Data: patent US8329843B2, “Method for producing amide compound” (Mitsui Chemicals, Inc., priority 2005, dated 2012)

Test system: microbial cell containing a nitrile hydratase
Type: biochemical
Details: benzene 26 ppm or acrolein 2 ppm in raw material acrylonitrile; more wet microbial cell needed
Procedure: There were prepared a 1-liter glass flask equipped with a stirrer as a first reactor and a Teflon (trademark) tube with an inside diameter of 5 mm and a length of 20 m as a second reactor. To the first reactor was charged 400 g of water in advance.
In accordance with the method described in Japanese Patent Application Laid-Open Publication No. 2001-340091, a microbial cell containing a nitrile hydratase was cultured and the resulting wet microbial cell was suspended in a 0.3 mM-NaOH aqueous solution. The suspension and the acrylonitrile b were continuously fed into the first reactor under stirring at a rate of 49 g/h and 31 g/h, respectively. In addition, the reaction solution was continuously taken out from the first reactor at a rate of 80 g/h so that the liquid level of the first reactor was maintained constant. The liquid taken out was continuously fed into the second reactor at a rate of 80 g/h and the reaction was further performed in the second reactor. […]
The amount of the wet microbial cell added to the 0.3 mM-NaOH aqueous solution was adjusted so that the conversion rate to acrylamide at the outlet of the first reactor was 90% or higher and the concentration of acrylonitrile at the outlet of the second reactor was at the detection limit or less (100 ppm or less). The conversion rate to acrylamide was determined by the analysis of HPLC. […]

Row | Structure (SMILES) | inhibition of reaction by impurity in acrylonitrile
1 | C=CC=O [acrolein] | inhibition of reaction by acrolein was confirmed
2 | c1ccccc1 [benzene] | inhibition of reaction by benzene was confirmed
